# Experimental data from patent US10004702B2, “Linear guanidine derivatives, methods of preparation and uses thereof” (LEAD DISCOVERY SIENA S.R.L., priority 2014, dated 2018).
# Read-outs that look alike come from different tables or passages of the source.
# Legend:
# Human Serum Albumin = Human Serum Albumin (Homo sapiens, UniProt P02768); test: Binding fluorimetric assay (tryptophan quenching); conditions: fixed concentration of HSA titrated with different amounts of compound
# Protocol: The solutions were mixed and after allowing 30 minutes at room temperature to reach the equilibrium conditions, the spectra were recorded. […] The percentages obtained were plotted against the concentrations used and the KD values were calculated using GraphPad software (version 5.0).
# [1] = system: Achromobacter xylosoxidans AX 22; test: Antimicrobial susceptibility testing, MIC by microdilution broth method; format: cell-based; conditions: 18-24 hours at 35-37° C.
# Protocol: (§1) Bacterial strains were obtained from the ATCC or CCUG culture collections or present in the authors' collection of clinical isolates. Compounds were re-suspended in dimethyl sulfoxyde (DMSO) at a final concentration of 10 mg/ml and subsequently diluted in the culture medium. The minimum inhibitory concentrations (MICs) of the compounds of the invention were determined using the microdilution broth method using Mueller-Hinton broth as recommended by the Clinical Laboratory Standards Institute (CLSI [11]). Bacterial inoculum was 5×10^4 CFU/well. MICs were recorded after 18-24 hours incubation at 35-37° C.
# Escherichia coli CCUG^T = test: as above; format: cell-based; conditions: Mueller-Hinton broth, 18-24 hours at 35-37° C.
# Protocol: as §1
# Burkholderia cepacia RII = test: as above; format: cell-based; conditions: Mueller-Hinton broth, 18-24 hours at 35-37° C.
# Protocol: as §1
# [2] = system: Klebsiella pneumoniae ATCC 13833; test: as above; format: cell-based; conditions: 18-24 hours at 35-37° C.
# Protocol: as §1
# [3] = system: Acinetobacter baumannii ATCC 17978; test: as above; format: cell-based; conditions: 18-24 hours at 35-37° C.
# Protocol: as §1
# [4] = system: Bacillus subtilis ATCC 6633; test: as above; format: cell-based; conditions: 18-24 hours at 35-37° C.
# Protocol: as §1
# [5] = system: Pseudomonas aeruginosa ATCC 27853; test: as above; format: cell-based; conditions: 18-24 hours at 35-37° C.
# Protocol: as §1
# [6] = system: Chryseobacterium meningosepticum CCUG 4310; test: as above; format: cell-based; conditions: 18-24 hours at 35-37° C.
# Protocol: as §1
# [7] = system: Alcaligenes faecalis 424/98; test: as above; format: cell-based; conditions: Mueller-Hinton broth, 18-24 hours at 35-37° C.
# Protocol: as §1
# [8] = system: Staphylococcus aureus ATCC 25923; test: as above; format: cell-based; conditions: 18-24 hours at 35-37° C.
# Protocol: as §1
# [9] = system: Enterococcus faecalis ATCC 19433; test: as above; format: cell-based; conditions: 18-24 hours at 35-37° C.
# Protocol: as §1
# [10] = system: Stenotrophomonas maltophilia 634/08; test: as above; format: cell-based; conditions: Mueller-Hinton broth, 18-24 hours at 35-37° C.
# Protocol: as §1
# [11] = system: Acinetobacter baumannii AC-54/97 (IMP-2); test: as above; format: cell-based; conditions: Acinetobacter baumannii AC-54/97 (IMP-2), Tables 2 and 3
# Protocol: as §1
# (§2) The Antibacterial activity of compound 28 was also tested on a panel of Gram-negative and Gram-positive clinical isolates, showing various antimicrobial susceptibility profiles (Table 4). The class of drugs for which the isolate was resistant to is indicated in column 2 (PEN, penicillins; ES-CEPH, expanded-spectrum cephalosporins; CARB, carbapenems; AZT; aztreonam; AG, aminoglycosides; FQ, fluoroquinolones; SXT, trimethoprim/sulfamethoxazole; FOS, fosfomycin; GLY, glycopeptides; LNZ, linezolid; COL-R, colistin resistant; COL-S colistin sensitive; PDR, poly-drug resistant).
# [12] = system: Gram-positive and Gram-negative organisms; test: Antimicrobial susceptibility testing, overall statements on the panel; format: cell-based; conditions: overall comparison over the tested strains
# Protocol: as §1
# [13] = system: Klebsiella pneumoniae 081R; test: Antimicrobial susceptibility testing, MIC by microdilution broth method; format: cell-based; conditions: Tables 2 and 3
# Protocol: as §1, §2
# [14] = system: Enterobacter cloacae VA-417/02 (VIM-4); test: as above; format: cell-based; conditions: Enterobacter cloacae VA-417/02 (VIM-4); Tables 2 and 3
# Protocol: as §1, §2
# [15] = AX22, Mueller-Hinton broth, read-out: MIC
# [16] = ATCC13833, Mueller-Hinton broth, read-out: MIC
# [17] = ATCC17978, Mueller-Hinton broth, read-out: MIC
# [18] = ATCC6633, Mueller-Hinton broth, read-out: MIC
# [19] = ATCC27853, Mueller-Hinton broth, read-out: MIC
# [20] = Elizabethkingia meningoseptica, CCUG4310, Mueller-Hinton broth, read-out: MIC
# [21] = ATCC25923, Mueller-Hinton broth, read-out: MIC
# [22] = ATCC19433, Mueller-Hinton broth, read-out: MIC
# Human Serum Albumin, sequence (P02768 25-609): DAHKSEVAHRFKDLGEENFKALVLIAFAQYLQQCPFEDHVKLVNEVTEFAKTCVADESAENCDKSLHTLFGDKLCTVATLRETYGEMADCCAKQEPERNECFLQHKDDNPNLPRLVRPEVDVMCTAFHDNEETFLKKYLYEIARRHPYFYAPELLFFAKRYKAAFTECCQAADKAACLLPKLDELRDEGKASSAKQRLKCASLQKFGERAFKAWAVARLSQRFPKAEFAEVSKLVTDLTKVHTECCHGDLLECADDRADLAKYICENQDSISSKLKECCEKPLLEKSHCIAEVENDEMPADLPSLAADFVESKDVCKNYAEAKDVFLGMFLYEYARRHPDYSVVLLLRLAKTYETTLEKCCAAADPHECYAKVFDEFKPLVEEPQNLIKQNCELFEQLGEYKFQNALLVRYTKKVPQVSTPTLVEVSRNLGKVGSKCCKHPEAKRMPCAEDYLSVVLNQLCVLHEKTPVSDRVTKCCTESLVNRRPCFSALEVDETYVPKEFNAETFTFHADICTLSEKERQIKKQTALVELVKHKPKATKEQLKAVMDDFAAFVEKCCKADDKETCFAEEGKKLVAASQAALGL
"MIC [1, 15] [µg/mL]",MIC (Escherichia coli CCUG^T; read-out: MIC) [µg/mL],MIC (Burkholderia cepacia RII; read-out: MIC) [µg/mL],"MIC [2, 16] [µg/mL]","MIC [3, 17] [µg/mL]","MIC [4, 18] [µg/mL]","MIC [5, 19] [µg/mL]","MIC [6, 20] [µg/mL]",MIC ([7]; read-out: MIC) [µg/mL],"MIC [8, 21] [µg/mL]","MIC [9, 22] [µg/mL]",MIC ([10]; read-out: MIC) [µg/mL],Compound,MIC ([1]; Mueller-Hinton broth) [µg/mL],MIC (Escherichia coli CCUG^T) [µg/mL],MIC (Burkholderia cepacia RII) [µg/mL],MIC ([2]; Mueller-Hinton broth) [µg/mL],MIC ([3]; Mueller-Hinton broth) [µg/mL],MIC ([4]; Mueller-Hinton broth) [µg/mL],MIC ([5]; Mueller-Hinton broth) [µg/mL],MIC ([6]; Mueller-Hinton broth) [µg/mL],also measured
,,,,,,,,,,,,"NC(=O)N1c2ccccc2C=Cc2ccccc21 [CARBAMAZEPINE, Carbamazepine, reference compound]",,,,,,,,,intrinsic fluorescence decrease of HSA (Human Serum Albumin): remarkable intrinsic fluorescence decrease
> 256,> 256,128,> 256,> 256,< 0.125,> 256,> 256,32,4,8,> 256,"N=C(N)NCCCCCCCCN(CCCCCCCCNC(=N)NCC1CC1)C(=O)NC(=N)NCCCCCCCCNCCCCCCCCNC(=N)NCC1CC1 [Compound 30, 1-(8-carbamimidamidooctyl)-1-[8-[[N-(cyclopropylmethyl)carbamimidoyl]amino]octyl]-3-[N-[8-[8-[[N-(cyclopropylmethyl)carbamimidoyl]amino]octylamino]octyl]carbamimidoyl]urea]",,,,,,,,,"MIC ([11]; Acinetobacter baumannii, read-out: MIC): 32 µg/mL"
> 256,16,> 256,32,128,4,256,> 256,> 256,4,32,> 256,"N=C(N)NCCCCCCN(CCCCCCNC(=N)NCC1CC1)C(=O)N(CCCCCCNC(=N)N)CCCCCCNC(=N)NCC1CC1 [Compound 31, 1,3-bis(6-(3-(cyclopropylmethyl)guanidino)hexyl)-1,3-bis(6-guanidinohexyl)urea]",,,,,,,,,
,,,,,,,,,,,,"N=C(N)NCCCCCCCCN(CCCCCCCCNC(=N)NCC1CC1)C(=O)N(CCCCCCCCNC(=N)NCC1CC1)CCCCCCCCNC(=N)NC(=O)NCCCCCCCCNCCCCCCCCNC(=N)NCC1CC1 [Compound 32, 1,3-bis(8-(3-(cyclopropylmethyl)guanidino)octyl)-1-(8-guanidinooctyl)-3-(8-((3-(8-((8-(3-(cyclopropylmethyl))guanidinooctyl)amino)octyl)carbamoyl)guanidino)octyl)urea]",64,8,128,8,32,8,32,64,MIC [7]: 32 µg/mL; MIC ([8]; Mueller-Hinton broth): 8 µg/mL; MIC ([9]; Mueller-Hinton broth): <0.125 µg/mL; MIC [10]: 64 µg/mL; antimicrobial spectrum (in words) [12]: active against both Gram-positive and Gram-negative organisms; MIC [11]: 16 µg/mL; MIC [13]: 16 µg/mL; MIC [14]: 16 µg/mL
,,,,,,,,,,,,"N=C(N)NCCCCCCN(CCCCCCNC(=N)NCC1CC1)C(=O)NC(=N)NCCCCCCNCCCCCCNC(=N)NCC1CC1 [Compound 33, 1-(6-carbamimidamidohexyl)-1-[6-[[N-(cyclopropylmethyl)carbamimidoyl]amino]hexyl]-3-[N-[6-[6-[[N (cyclopropylmethyl)carbamimidoyl]amino]hexylamino]hexyl]carbamimidoyl]urea]",>256,32,>256,64,256,8,>256,>256,MIC [7]: >256 µg/mL; MIC ([8]; Mueller-Hinton broth): 16 µg/mL; MIC ([9]; Mueller-Hinton broth): 32 µg/mL; MIC [10]: >256 µg/mL; MIC [11]: 8 µg/mL; MIC [14]: 64 µg/mL
